Earlier results on one compound are cited in paper PMC9851200, “Multiparameter phenotypic screening for endogenous TFEB and TFE3 translocation identifies novel chemical series modulating lysosome function” (Autophagy, 2022).

In data set [1] the target is T1, kinases (KINOMEscan panel) (Homo sapiens, UniProt O95835).
T1 sequence (O95835 1-1130): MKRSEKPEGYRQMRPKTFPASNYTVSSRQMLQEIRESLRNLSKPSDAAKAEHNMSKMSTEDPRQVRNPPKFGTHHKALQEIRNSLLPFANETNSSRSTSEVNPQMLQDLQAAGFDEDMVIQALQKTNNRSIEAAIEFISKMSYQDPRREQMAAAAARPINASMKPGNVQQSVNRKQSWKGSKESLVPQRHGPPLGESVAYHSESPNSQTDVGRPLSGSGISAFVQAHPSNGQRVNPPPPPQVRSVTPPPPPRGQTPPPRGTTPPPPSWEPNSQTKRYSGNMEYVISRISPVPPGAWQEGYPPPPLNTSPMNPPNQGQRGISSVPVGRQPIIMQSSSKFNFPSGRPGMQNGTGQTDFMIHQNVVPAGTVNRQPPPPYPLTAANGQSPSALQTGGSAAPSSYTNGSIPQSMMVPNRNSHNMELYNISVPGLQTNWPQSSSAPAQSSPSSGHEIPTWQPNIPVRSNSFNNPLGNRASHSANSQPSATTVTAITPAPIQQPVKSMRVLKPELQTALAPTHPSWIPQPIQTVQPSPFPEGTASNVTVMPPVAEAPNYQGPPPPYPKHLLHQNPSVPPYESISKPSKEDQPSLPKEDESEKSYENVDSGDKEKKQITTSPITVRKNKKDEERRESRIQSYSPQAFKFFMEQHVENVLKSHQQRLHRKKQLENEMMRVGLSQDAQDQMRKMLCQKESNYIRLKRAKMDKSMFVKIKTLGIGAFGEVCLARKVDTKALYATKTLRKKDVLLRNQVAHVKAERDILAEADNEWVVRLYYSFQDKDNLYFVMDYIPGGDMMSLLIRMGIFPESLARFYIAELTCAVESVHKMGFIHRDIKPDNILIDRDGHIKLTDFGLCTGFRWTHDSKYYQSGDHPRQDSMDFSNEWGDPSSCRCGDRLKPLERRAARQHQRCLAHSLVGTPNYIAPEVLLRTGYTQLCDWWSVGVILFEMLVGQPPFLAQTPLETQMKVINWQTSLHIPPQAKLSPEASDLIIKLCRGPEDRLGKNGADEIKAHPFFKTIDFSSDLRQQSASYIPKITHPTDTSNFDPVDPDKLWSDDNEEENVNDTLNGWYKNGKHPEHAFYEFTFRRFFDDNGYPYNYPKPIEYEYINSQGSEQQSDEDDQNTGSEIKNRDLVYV
On the set-up: method as in original PKIS2 published data. The note with it: LATS1; Published KINOMEscan; ref original PKIS2 published data; cited from earlier work.

Data set [2] concerns the target T2, kinases (KINOMEscan panel) (Homo sapiens, UniProt Q9NRP7).
T2 sequence (Q9NRP7 1-1315): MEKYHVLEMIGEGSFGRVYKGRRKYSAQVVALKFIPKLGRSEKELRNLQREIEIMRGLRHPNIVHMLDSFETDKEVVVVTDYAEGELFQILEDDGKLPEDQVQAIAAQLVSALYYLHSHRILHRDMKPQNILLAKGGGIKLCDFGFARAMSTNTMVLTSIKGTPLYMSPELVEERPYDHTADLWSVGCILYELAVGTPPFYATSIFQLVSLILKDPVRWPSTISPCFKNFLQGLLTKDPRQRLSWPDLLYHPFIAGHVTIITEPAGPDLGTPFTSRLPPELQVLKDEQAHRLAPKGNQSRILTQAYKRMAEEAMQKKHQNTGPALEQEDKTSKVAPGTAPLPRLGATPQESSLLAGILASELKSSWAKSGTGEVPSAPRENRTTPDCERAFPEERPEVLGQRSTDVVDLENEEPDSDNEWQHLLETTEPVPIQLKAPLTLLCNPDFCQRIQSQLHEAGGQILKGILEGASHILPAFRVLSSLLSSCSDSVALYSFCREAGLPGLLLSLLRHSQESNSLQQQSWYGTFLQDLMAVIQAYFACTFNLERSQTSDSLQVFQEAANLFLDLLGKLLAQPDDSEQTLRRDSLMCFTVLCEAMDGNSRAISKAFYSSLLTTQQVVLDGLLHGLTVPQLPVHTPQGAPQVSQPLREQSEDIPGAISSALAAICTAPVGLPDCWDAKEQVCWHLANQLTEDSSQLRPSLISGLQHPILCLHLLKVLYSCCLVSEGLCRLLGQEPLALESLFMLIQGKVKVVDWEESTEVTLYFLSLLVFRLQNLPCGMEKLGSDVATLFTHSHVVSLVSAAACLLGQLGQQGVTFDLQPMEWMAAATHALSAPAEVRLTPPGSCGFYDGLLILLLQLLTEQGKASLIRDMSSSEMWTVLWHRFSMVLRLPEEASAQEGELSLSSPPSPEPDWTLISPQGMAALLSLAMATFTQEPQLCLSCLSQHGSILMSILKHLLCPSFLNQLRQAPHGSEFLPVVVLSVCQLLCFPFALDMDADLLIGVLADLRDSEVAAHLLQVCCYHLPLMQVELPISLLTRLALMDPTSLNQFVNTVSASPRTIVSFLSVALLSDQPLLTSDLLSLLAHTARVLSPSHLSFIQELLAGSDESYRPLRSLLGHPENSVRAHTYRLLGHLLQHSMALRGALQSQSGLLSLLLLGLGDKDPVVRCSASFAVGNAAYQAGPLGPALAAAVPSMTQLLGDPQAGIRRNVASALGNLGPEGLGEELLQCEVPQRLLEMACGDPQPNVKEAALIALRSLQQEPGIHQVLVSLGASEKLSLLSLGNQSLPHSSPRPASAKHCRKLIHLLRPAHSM
On the set-up: method as in original PKIS2 published data. The note with it: STK36; Published KINOMEscan; ref original PKIS2 published data; cited from earlier work.

As to `Cc1cccc(-c2nc(Nc3ccncc3)c3ccccc3n2)n1` [NK215], the “KINOMEscan LATS1” value in data set [1] was 3. In data set [2], the “KINOMEscan STK36” value was 5.
